# Measured values as given in PMC10728220, “Novel 3-(pyrazol-4-yl)-2-(1H-indole-3-carbonyl)acrylonitrile derivatives induce intrinsic and extrinsic apoptotic death mediated P53 in HCT116 colon carcinoma” (Scientific Reports, 2023).
# Assays:
# Human caspase-8 = test: ELISA caspase 8 production in HCT116; format: cell-based
# Experimental: The production of caspase 8 was determined using various concentrations of 7f in a concertation-dependent manner. There was a gradual increase in the caspase 8 production level using the following concentrations (0.156, 0.312, 0.625, 1.25, 2.5, 5, and 10 ng/ml). The maximal increase in caspase 8 production was achieved by using 7f concentrations between 5 and 10 ng/ml (Fig. 8).
# The quantitative measurements of Human caspases-3, -8, and -9 concentrations in HCT116 cell culture lysates were performed using ELISA assay. The protocols were followed up based on the manuscript instructions described in the following kits; Invitrogen human Caspase-3 Elisa Kit, Catalog # KHO1091, DRG® human Caspase-8 ELISA Kit, Catalog # (EIA-4863), and DRG® human Caspase-9 ELISA Kit, Catalog # (EIA-4860)respectively. In short, the procedure described in the above protocols was as instructed; all reagents, standards, and samples were prepared. Then, 100 μL of standard or samples were added to each well and incubated at room temperature for 2 h. Afterward, 100 μL of the prepared antibody (anti-rabbit-IgG-HRP) was added to all wells for 1 h at room temperature. […] All readings were measured immediately at a wavelength of 450 nm. From the readings of the standards, a standard curve was plotted using curve fitting software. Then, the concentrations for unknown samples and controls were measured from the standard curve.
# HCT116 cells [1] = test: Flow cytometric analysis of apoptosis (Annexin V-FITC/PI); format: cell-based, human; conditions: HCT116, 7f treated
# Experimental: (§1) Chalcone 7f was selected for more investigations, in attempts to find its molecular action on cancer cells. It illustrated high and very interesting cytotoxicity toward the tested colon cancer cell line (HCT116) as mentioned in the above MTT assay data (Table 1). A flow cytometric report was utilized in this recent paper to investigate the effect of our novel acrylonitrile compound 7f on the cell cycle, HCT116 cells were treated with compound 7f at a dose of (6.76 µg/mL) for 48 h and subjected to flow cytometric analysis.
# The percentage of apoptotic cells was detected using Annexin V-FITC kit catalogue number (#K101-25). Briefly, 5 × 10^5 of HCT116 cells were collected by centrifugation. Then, the cell pellet was suspended in 500 µL of 1X Binding Buffer. Afterward, 5 µL of Annexin V-FITC and 5 µL of propidium iodide were added to cells and kept at room temperature for 5 min in the dark[89]–[91]. Finally, the percentage of the apoptotic cells was detected by flow cytometry using the FITC signal detector(usually FL-1) and PI staining by the phycoerythrin emission signal detector (usually FL-2).
# lung carcinoma (A549) = test: Cytotoxic MTT assay, A549; format: cell-based; conditions: Homo sapiens, 48 h treatment
# Experimental: (§2) MTT protocol was performed to study the viability of cells after treatment with the tested compounds. The studied cell lines (A549 and HCT116) were cultured and grown in RPMI‐1640 media, while HFB4 cells were reserved in DMEM‐F12 media. Both media were supplemented with 10% FBS, 1% L‐glutamine, and 1% antibiotic–antimycotic mixture. The cell lines were grown at conditions of 37 °C and 5% CO2. 10 × 10^3 of A549, and HCT116 cells and the same count of normal melanocytes (HFB4) were cultured in a 96‐well plate. The selected cultured cells were kept at 37°C and 5% CO2 overnight. Then, the medium was discarded after 24 h of incubation, and 100 µL from different concentrations of the studied compounds dissolved in fresh medium without serum, with final concentrations of 100, 50, 25, 12.5, 6.25, 3.125, 1.56, and 0.78 µg/mL was added. The treated cells were then incubated for 48 h. After that, 50 µL of MTT was added into each well for 4 h for the formazan crystals to be formed. Finally, 200 µl of 10% sodium dodecyl sulphate (SDS) was added to each well, and plates were kept at room temperature overnight to allow the reaction to be stopped. The optical density at 575 nm was read using a microplate multi-well reader, and the percentage of cell viability was calculated. The dose–response curve was drawn to calculate the IC50 values for each compound using the prism GraphPad 5 program, [84]. 5 Fluorouracil, a commercial anticancer drug was used as a reference drug (positive control). Negative untreated cell control was used in this assay.
# HCT116 cells [2] = test: Flow cytometric analysis of cell cycle; format: cell-based, human; conditions: HCT116, 6.76 µg/mL, 48 h
# Experimental: as §1
# In this study, non-treated HCT116 cells were used as a negative control. After the incubation period of 48 h, HCT116 treated cells were centrifuged at 1,200 rpm at 4 °C for 10 min. After disposing of the supernatant, the cell pellet was suspended in phosphate-buffered saline (PBS) and then centrifuged at 1200 rpm for 10 min. 70% cold ethanol was added overnight to allow the fixation of the cell pellet. After the step of centrifugation, the propidium iodide (PI) mixture was added to the cell pellet for 30 min at room temperature in the darkness. Subsequently, cells were subjected to Epics XL-MCL flow cytometer (BeckmanCoulter, Miami, FL) for analysis of DNA content. The percentage of cells in different phases of the cell cycle was analyzed by Multicycle software (Phoenix Flow Systems, San Diego, CA).
# [3] = system: normal human skin melanocyte cell line (HFB4); test: Cytotoxic MTT assay, normal HFB4 cells; format: cell-based; conditions: 48 h treatment
# Experimental: as §2
compound,measurement,setting,value
"N#C/C(=C\c1cn(-c2ccccc2)nc1-c1ccc([N+](=O)[O-])cc1)C(=O)c1c[nH]c2ccccc12 [Compound 7f, (E)-2-(1H-Indole-3-carbonyl)-3-(3-(4-nitrophenyl)-1-phenyl-1H-pyrazol-4-yl)acrylonitrile]","caspase 8 production, fold increase",Human caspase-8; HCT116 treated with 7f versus untreated,3.788 fold
same,caspase 8 production level,"Human caspase-8; HCT116 treated with 7f, untreated 0.2914 ng/ml",1.104 ng/mL
same,early apoptotic induction,HCT116 cells [1]; control 0.32%,21.38%
same,necrosis,HCT116 cells [1]; control 1.12%,6.82%
same,IC50,lung carcinoma (A549),> 100 µg/mL
same,DNA content in G2/M phase (%DIP G2/M),HCT116 cells [2]; control 13.68%,2.55%
same,cells in S phase (%DIP S),HCT116 cells [2]; control 41.04%,46.12%
same,cell accumulation in G1 phase (%DIP G1),HCT116 cells [2]; control 45.28%,51.33%
same,IC50,[3],56.7 µg/mL
